# Assay results from US20110224208A1, “NOVEL INHIBITORS OF FLAVIVIRUS REPLICATION” (KATHOLIEKE UNIVERSITEIT LEUVEN, K.U. LEUVEN R&D, priority 2008, published 2011).
# System: HCV replicon I389luc-ubi-neo/NS3-3'/5.1
# Assay: Anti-HCV replicon assay (luciferase activity) in Huh-5-2 cells
# Type: cell-based, Hepatitis C virus
# Conditions: Hepatitis C virus, Huh-5-2, 72 h, concentration required to inhibit luciferase activity in the replicon system by 50%
# Procedure: Cells were seeded at a density of 7000 cells per well in 96 well View Plate™ (Packard) in medium containing the same components as described above, except for G418. Cells were allowed to adhere and proliferate for 24 hr. At that time, culture medium was removed and serial dilutions of the test compounds were added in culture medium lacking G418. Interferon alfa 2a (500 IU) was included as a positive control. Plates were further incubated at 37° C. and 5% CO2 for 72 hours. Replication of the HCV replicon in Huh-5 cells results in luciferase activity in the cells. Luciferase activity is measured by adding 50 μl of 1×Glo-lysis buffer (Promega) for 15 minutes followed by 50 ul of the Steady-Glo Luciferase assay reagent (Promega). Luciferase activity is measured with a luminometer and the signal in each individual well is expressed as a percentage of the untreated cultures. […] Instead the density of the culture is measured by means of the MTS method (Promega).
row,Structure (SMILES),IC50 [µg/mL]
1,"COCCN1C(=O)c2cc([N+](=O)[O-])ccc2C(C(=O)Nc2cccc(OC)c2)C1c1cccs1 (stereo not shown) [C3, 2-(2-methoxyethyl)-N-(3-methoxyphenyl)-7-nitro-1-oxo-3-(thiophen-2-yl)-1,2,3,4-tetrahydroisoquinoline-4-carboxamide]",40.9
2,"COc1cccc(NC(=O)C2c3ccccc3C(=O)N(Cc3ccco3)C2c2cccs2)c1 (stereo not shown) [C4, 2-(Furan-2-ylmethyl)-N-(3-methoxyphenyl)-1-oxo-3-(thiophen-2-yl)-1,2,3,4-tetrahydroisoquinoline-4-carboxamide]",41.5
3,"COCCN1C(=O)c2ccccc2C(C(=O)Nc2cccc(OC)c2)C1c1c(F)cccc1F (stereo not shown) [C10, 3-(2,6-Difluorophenyl)-2-(2-methoxyethyl)-N-(3-methoxyphenyl)-1-oxo-1,2,3,4-tetrahydroisoquinoline-4-carboxamide]",32.1
4,"COCCN1C(=O)c2ccccc2C(C(=O)Nc2cccc(OC)c2)C1c1ccc(C)s1 (stereo not shown) [C12, 2-(2-Methoxyethyl)-N-(3-methoxyphenyl)-3-(5-methylthiophen-2-yl)-1-oxo-1,2,3,4-tetrahydroisoquinoline-4-carboxamide]",1.2
5,"COc1cccc(NC(=O)C2c3ccccc3C(=O)N(CCN(C)C)C2c2cccs2)c1 (stereo not shown) [C15, 2-(2-(Dimethylamino)ethyl)-N-(3-methoxyphenyl)-1-oxo-3-(thiophen-2-yl)-1,2,3,4-tetrahydroisoquinoline-4-carboxamide]",11.8
6,"CCCCN1C(=O)c2ccccc2C(C(=O)Nc2cccc(OC)c2)C1c1cccs1 (stereo not shown) [C16, 2-Butyl-N-(3-methoxyphenyl)-1-oxo-3-(thiophen-2-yl)-1,2,3,4-tetrahydroisoquinoline-4-carboxamide]",1.1
7,"COc1cccc(NC(=O)C2c3ccccc3C(=O)N(CC3CCCCC3)C2c2cccs2)c1 (stereo not shown) [C22, 2-(Cyclohexylmethyl)-N-(3-methoxyphenyl)-1-oxo-3-(thiophen-2-yl)-1,2,3,4-tetrahydroisoquinoline-4-carboxamide]",4.09
8,"COCCN1C(=O)c2ccccc2C(C(=O)Nc2cccc(OC)c2)C1c1cc2ccccc2s1 (stereo not shown) [C27, 3-(Benzo[b]thiophen-2-yl)-2-(2-methoxyethyl)-N-(3-methoxyphenyl)-1-oxo-1,2,3,4-tetrahydroisoquinoline-4-carboxamide]",17.4
9,"COCCN1C(=O)c2ccccc2C(C(=O)Nc2cccc(OC)c2)C1c1ccccc1 (stereo not shown) [C28, 2-(2-Methoxyethyl)-N-(3-methoxyphenyl)-1-oxo-3-phenyl-1,2,3,4-tetrahydroisoquinoline-4-carboxamide]",38.8
10,"COCCN1C(=O)c2ccccc2C(C(=O)NCCOc2ccccc2)C1c1cccs1 (stereo not shown) [C34, 2-(2-Methoxyethyl)-1-oxo-N-(2-phenoxyethyl)-3-(thiophen-2-yl)-1,2,3,4-tetrahydroisoquinoline-4-carboxamide]",16.5
11,"COCCN1C(=O)c2ccccc2C(C(=O)O)C1c1cccs1 (stereo not shown) [C36, 2-(2-methoxyethyl)-1-oxo-3-(thiophen-2-yl)-1,2,3,4-tetrahydroisoquinoline-4-carboxylic acid]",47.1
12,"COCCn1c(-c2ccco2)c(C(=O)Nc2cccc(OC)c2)c2ccccc2c1=O [C38, 3-(furan-2-yl)-2-(2-methoxyethyl)-N-(3-methoxyphenyl)-1-oxo-1,2-dihydroisoquinoline-4-carboxamide]",41.4
13,"COCCN1C(=O)c2ccc(C)cc2C(C(=O)Nc2cccc(OC)c2)C1c1cccs1 (stereo not shown) [C40, 2-(2-Methoxyethyl)-N-(3-methoxyphenyl)-6-methyl-1-oxo-3-(thiophen-2-yl)-1,2,3,4-tetrahydroisoquinoline-4-carboxamide]",7.76
14,"COCCN1C(=O)c2c(C)cccc2C(C(=O)Nc2cccc(OC)c2)C1c1cccs1 (stereo not shown) [C42, 2-(2-Methoxyethyl)-N-(3-methoxyphenyl)-8-methyl-1-oxo-3-(thiophen-2-yl)-1,2,3,4-tetrahydroisoquinoline-4-carboxamide]",0.5
15,"COCCN1C(=O)c2cc(Cl)ccc2C(C(=O)Nc2cccc(OC)c2)C1c1cccs1 (stereo not shown) [C43, 7-Chloro-2-(2-methoxyethyl)-N-(3-methoxyphenyl)-1-oxo-3-(thiophen-2-yl)-1,2,3,4-tetrahydroisoquinoline-4-carboxamide]",0.3
16,"COCCN1C(=O)c2ccc(Cl)cc2C(C(=O)Nc2cccc(OC)c2)C1c1cccs1 (stereo not shown) [C55, 6-chloro-2-(2-methoxyethyl)-N-(3-methoxyphenyl)-1-oxo-3-(thiophen-2-yl)-1,2,3,4-tetrahydroisoquinoline-4-carboxamide]",43
17,"COCCN1C(=O)c2cc(I)ccc2C(C(=O)Nc2cccc(OC)c2)C1c1cccs1 (stereo not shown) [C56, 7-Iodo-2-(2-methoxyethyl)-N-(3-methoxyphenyl)-1-oxo-3-(thiophen-2-yl)-1,2,3,4-tetrahydroisoquinoline-4-carboxamide]",0.98

row,Structure (SMILES),IC50 [µg/mL]
1,"CCC1C(C(=O)Nc2cccc(OC)c2)c2ccccc2C(=O)N1CCOC (stereo not shown) [C58, 3-Ethyl-2-(2-methoxyethyl)-N-(3-methoxyphenyl)-1-oxo-1,2,3,4-tetrahydroisoquinoline-4-carboxamide]",1.81
2,"COCCN1C(=O)c2ccccc2C(C(=O)Nc2cccc(Cl)c2)C1c1cccs1 (stereo not shown) [C60, N-(3-chlorophenyl)-2-(2-methoxyethyl)-1-oxo-3-(thiophen-2-yl)-1,2,3,4-tetrahydroisoquinoline-4-carboxamide]",0.98
3,"COCCN1C(=O)c2cccc(F)c2C(C(=O)Nc2cccc(OC)c2)C1c1cccs1 (stereo not shown) [C61, 5-Fluoro-2-(2-methoxyethyl)-N-(3-methoxyphenyl)-1-oxo-3-(thiophen-2-yl)-1,2,3,4-tetrahydroisoquinoline-4-carboxamide]",0.22
4,"COc1cccc(NC(=O)C2c3ccccc3C(=O)N(CCSC)C2c2cccs2)c1 (stereo not shown) [C63, N-(3-methoxyphenyl)-2-(2-(methylthio)ethyl)-1-oxo-3-(thiophen-2-yl)-1,2,3,4-tetrahydroisoquinoline-4-carboxamide]",3.21
5,"CCN1CCCC1CN1C(=O)c2ccccc2C(C(=O)Nc2cccc(OC)c2)C1c1cccs1 (stereo not shown) [C67, 2-((1-ethylpyrrolidin-2-yl)methyl)-N-(3-methoxyphenyl)-1-oxo-3-(thiophen-2-yl)-1,2,3,4-tetrahydroisoquinoline-4-carboxamide]",10.4
6,"COCCN1C(=O)c2ccccc2C(C(=O)Nc2cccc(OC)c2)C1C (stereo not shown) [C69, 2-(2-methoxyethyl)-N-(3-methoxyphenyl)-3-methyl-1-oxo-1,2,3,4-tetrahydroisoquinoline-4-carboxamide]",8.7
7,"CCN1CCC[C@H]1CN1C(=O)c2ccccc2C(C(=O)Nc2cccc(OC)c2)C1c1cccs1 (stereo partly drawn) [C74, 2-(((S)-1-ethylpyrrolidin-2-yl)methyl)-N-(3-methoxyphenyl)-1-oxo-3-(thiophen-2-yl)-1,2,3,4-tetrahydroisoquinoline-4-carboxamide]",36
8,"COCCN1C(=O)c2cc(OC)c(OC)cc2C(C(=O)Nc2cccc(OC)c2)C1c1cccs1 (stereo not shown) [C75, 6,7-dimethoxy-2-(2-methoxyethyl)-N-(3-methoxyphenyl)-1-oxo-3-(thiophen-2-yl)-1,2,3,4-tetrahydroisoquinoline-4-carboxamide]",43.1
9,"COCCN1C(=O)c2ccccc2C(COCc2ccccc2)C1c1cccs1 (stereo not shown) [C76, 4-(benzyloxymethyl)-2-(2-methoxyethyl)-3-(thiophen-2-yl)-3,4-dihydroisoquinolin-1(2H)-one]",22
10,"COCCN1C(=O)c2ccc(F)cc2C(C(=O)Nc2cccc(OC)c2)C1c1cccs1 (stereo not shown) [C77, 6-fluoro-2-(2-methoxyethyl)-N-(3-methoxyphenyl)-1-oxo-3-(thiophen-2-yl)-1,2,3,4-tetrahydroisoquinoline-4-carboxamide]",11.2
11,"COCCN1C(=O)c2ccccc2C(C(=O)Nc2ccccc2-c2ccccc2)C1c1cccs1 (stereo not shown) [C84, N-(biphenyl-2-yl)-2-(2-methoxyethyl)-1-oxo-3-(thiophen-2-yl)-1,2,3,4-tetrahydroisoquinoline-4-carboxamide]",12
12,"COCCN1C(=O)c2ccccc2C(C(=O)Nc2cccc(C)c2)C1c1cccs1 (stereo not shown) [C85, 2-(2-methoxyethyl)-1-oxo-3-(thiophen-2-yl)-N-m-tolyl-1,2,3,4-tetrahydroisoquinoline-4-carboxamide]",0.18
13,"COCCN1C(=O)c2ccccc2C(C(=O)Nc2ccc(Cl)c(Cl)c2)C1c1cccs1 (stereo not shown) [C87, N-(3,4-dichlorophenyl)-2-(2-methoxyethyl)-1-oxo-3-(thiophen-2-yl)-1,2,3,4-tetrahydroisoquinoline-4-carboxamide]",0.15
14,"COCCN1C(=O)c2c(F)ccc(F)c2C(C(=O)Nc2cccc(OC)c2)C1c1cccs1 (stereo not shown) [C91, 5,8-difluoro-2-(2-methoxyethyl)-N-(3-methoxyphenyl)-1-oxo-3-(thiophen-2-yl)-1,2,3,4-tetrahydroisoquinoline-4-carboxamide]",0.32
15,"COCCN1C(=O)c2cc(C(F)(F)F)ccc2C(C(=O)Nc2cccc(OC)c2)C1c1cccs1 (stereo not shown) [C92, 2-(2-methoxyethyl)-N-(3-methoxyphenyl)-1-oxo-3-(thiophen-2-yl)-7-(trifluoromethyl)-1,2,3,4-tetrahydroisoquinoline-4-carboxamide]",7.04
16,"COCCN1C(=O)c2ccccc2C(C(=O)Nc2ccc(F)c(Cl)c2)C1c1cccs1 (stereo not shown) [C94, N-(3-chloro-4-fluorophenyl)-2-(2-methoxyethyl)-1-oxo-3-(thiophen-2-yl)-1,2,3,4-tetrahydroisoquinoline-4-carboxamide]",0.25
17,"COCCN1C(=O)c2ccccc2C(C(=O)Nc2cccc(OC)c2)C1c1cc(C)no1 (stereo not shown) [C104, 2-(2-methoxyethyl)-N-(3-methoxyphenyl)-3-(3-methylisoxazol-5-yl)-1-oxo-1,2,3,4-tetrahydroisoquinoline-4-carboxamide]",10.1
